“Also recorded” adds a separate entry of the source.
Tests used:
S. aureus RnpA = target: T1, S. aureus RnpA (Staphylococcus aureus, UniProt P0A0H5); experiment: RnpA-mediated RNA (spa mRNA) degradation inhibitory titration assay; type: biochemical; conditions: for IC50: 1 pmol spa mRNA, 20 pmol RnpA, one hour at 37° C., agarose gel, read-out: apparent IC50
T1 construct: hexahistidine-tag (pET-30 Ek/LIC leader) (N); made in house; host or cells: E. coli BL21 (DE3)
T1 sequence (P0A0H5 1-117): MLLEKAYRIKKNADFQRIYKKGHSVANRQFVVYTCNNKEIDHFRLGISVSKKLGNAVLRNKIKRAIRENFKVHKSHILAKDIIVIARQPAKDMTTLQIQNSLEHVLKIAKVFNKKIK
Description: Specifically, members of the ActiProbe-25K and Natural Product libraries (29,940 compounds total; TimTec Inc.; Newark, Del.) were screened for small molecule inhibitors of S. aureus RnpA mediated total bacterial RNA degradation. All reactions (50 μl) were performed in 96-well format and contained 20 pmol RnpA, 200 ng S. aureus total RNA, and ˜5 μM of each compound in 1× reaction buffer (2 mM NaCl, 2 mM MgCl2, 50 mM Tris-HCl, pH 6.0). Mixtures were incubated at 37° C. for 20 min at which time Quant-iT RiboGreen® (100 μl; Invitrogen) was added to quantify the amount of RNA substrate remaining. Percent enzyme inhibition was calculated as remaining substrate/starting substrate*100. For inhibitory titration assays, 1 pmol of spa mRNA was incubated with 20 pmol RnpA alone (positive control) or in the presence of one of four compounds for one hour at 37° C. […] Following this, 20 μl of each reaction mixture were subjected to electrophoresis in a 1.2% formaldehyde-containing agarose gel and visualized by ethidium bromide staining.

MRSA = experiment: Antimicrobial susceptibility testing, broth microdilution (CLSI); type: cell-based, Staphylococcus aureus; conditions: 18 hr at 37° C.
Text: In some examples, compounds can be further assayed using the Mueller Hinton (MH) broth antibacterial assay as specified by the Clinical and Laboratory Standards Institute MIC broth microdilution protocol (see Methods for Dilution Antimicrobial Susceptibility Tests for Bacteria That Grow Aerobically; Approved Standard, In The Clinical and Laboratory Standards Institute (CLSI, formerly NCCLS), 7th ed., January 2006, 26 (2), M7-A7; see also Performance Standards for Antimicrobial Susceptibility Testing; Eighteenth Informational Supplement, In The Clinical and Laboratory Standards Institute (CLSI, formerly NCCLS), January 2008, 28 (1), M100-S18).
Microtiter plates containing serial dilutions of the compounds 1000 (0, 4, 8, 16, 32, 64, and 128 μg/ml) were inoculated with 10^5 colony forming units (CFU)/ml and incubated for 18 hr at 37° C.

HepG2 human hepatocytes = experiment: HepG2 MTT cytotoxicity assay; type: cell-based; conditions: 1×, 2×, 4× the MIC value for 48 hours
Description: It was then assessed whether RnpA-inhibitory agent concentrations corresponding to the effective bacterial MIC values (10-50 μg/ml) elicited human cell cytotoxicity. HepG2 human hepatocytes (10^5 cells) were seeded in individual wells of a microtitre plate and incubated for 16 hr at 37° C. with 5% carbon dioxide in Dulbecco's Modified Eagle Media supplemented with 10% fetal bovine serum. Cells were then challenged with Mitomycin C (5 or 10 μg/ml; positive control) or 1, 2, or 4 times (1×, 2×, 4×) the MIC value of the indicated RnpA inhibitory compound for 48 hours. Cell viability was measured spectrophotometrically (570 nm) following the addition and subsequent reduction of tetrazolium salt (MTT) within metabolically active cells, as per the manufacturer's recommendations (American Type Culture Collection; Manassas, Va.).

| IC50 (S. aureus RnpA) | SMILES | inhibition of RnpA-mediated RNA degradation (in words) (S. aureus RnpA) | antimicrobial activity against MRSA (in words) (MRSA) | human cell cytotoxicity / cell survival (in words) (HepG2 human hepatocytes) | human cell cytotoxicity / cell survival (in words) (HepG2 human hepatocytes; listed as ST006630) | human cell cytotoxicity / cell survival (in words) (HepG2 human hepatocytes; listed as ST003531) |
| --- | --- | --- | --- | --- | --- | --- |
| 12.5 to 20 µM | O=C(O)CCN1C(=O)/C(=C\c2ccc(-c3ccc(Cl)cc3)o2)SC1=S [RNPA-3000] | inhibit RnpA-mediated RNA degradation; also recorded: excellent RnpA-inhibitory activity | moderate antimicrobial activity; also recorded: good antistaphylococcal activity | do not cause human cytotoxicity | did not affect human cell survival | – |
| 15 to 20 µM | CC(C)c1ccc(OCC(=O)NNC(=S)NC(=O)c2ccco2)cc1 [RNPA-2000] | inhibit RnpA-mediated RNA degradation; also recorded: excellent RnpA-inhibitory activity | moderate antimicrobial activity; also recorded: good antistaphylococcal activity | do not cause human cytotoxicity | – | did not affect human cell survival |

Reference: patent publication US9517230B2, “Small molecule RNase inhibitors and methods of use” (UNIVERSITY OF ROCHESTER, priority 2011, dated 2016)
